In ChEMBL document CHEMBL5365407, “Design, synthesis and biological evaluation of nitric oxide-releasing 5-cyano-6-phenyl-2, 4-disubstituted pyrimidine derivatives” (Bioorg Med Chem Lett, 2023) one finds IC50 and Activity data, which are given here for five compounds.

The target of experiment [1] is T1, Tyrosine-protein kinase JAK3 (Homo sapiens, UniProt P52333).
T1 sequence (P52333 whole entry): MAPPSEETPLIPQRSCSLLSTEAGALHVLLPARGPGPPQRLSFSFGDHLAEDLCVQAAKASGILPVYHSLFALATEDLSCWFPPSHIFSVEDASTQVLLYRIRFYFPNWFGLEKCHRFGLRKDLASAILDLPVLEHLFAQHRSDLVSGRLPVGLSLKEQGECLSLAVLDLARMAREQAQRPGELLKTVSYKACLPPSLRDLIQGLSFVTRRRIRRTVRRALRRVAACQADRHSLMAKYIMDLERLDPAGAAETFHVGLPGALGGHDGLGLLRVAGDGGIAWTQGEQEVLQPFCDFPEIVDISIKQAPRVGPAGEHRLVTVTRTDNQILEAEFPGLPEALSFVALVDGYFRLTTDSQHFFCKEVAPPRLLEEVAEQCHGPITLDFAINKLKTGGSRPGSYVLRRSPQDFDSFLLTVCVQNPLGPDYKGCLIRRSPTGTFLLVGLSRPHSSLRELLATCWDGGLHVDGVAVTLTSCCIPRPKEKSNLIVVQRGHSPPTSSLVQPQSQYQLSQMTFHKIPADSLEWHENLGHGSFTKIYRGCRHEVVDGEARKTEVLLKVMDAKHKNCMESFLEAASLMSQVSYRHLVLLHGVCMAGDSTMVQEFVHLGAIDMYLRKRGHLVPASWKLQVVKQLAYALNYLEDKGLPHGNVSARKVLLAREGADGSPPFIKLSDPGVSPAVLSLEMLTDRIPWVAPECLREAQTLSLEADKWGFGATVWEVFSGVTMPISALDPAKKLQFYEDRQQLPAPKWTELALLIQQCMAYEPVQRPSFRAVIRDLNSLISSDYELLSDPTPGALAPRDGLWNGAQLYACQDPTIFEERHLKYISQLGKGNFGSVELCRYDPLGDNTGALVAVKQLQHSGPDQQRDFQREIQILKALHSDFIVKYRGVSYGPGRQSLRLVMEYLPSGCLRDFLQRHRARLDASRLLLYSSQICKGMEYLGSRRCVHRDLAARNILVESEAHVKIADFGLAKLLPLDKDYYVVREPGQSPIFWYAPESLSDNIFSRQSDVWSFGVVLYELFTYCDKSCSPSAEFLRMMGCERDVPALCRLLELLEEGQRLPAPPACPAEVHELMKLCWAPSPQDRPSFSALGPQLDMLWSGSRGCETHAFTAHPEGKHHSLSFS
The experiment can be described thus: biochemical. In kind it is cell-based, Sf9.
Description: Inhibition of recombinant human N-terminal GST-tagged JAK3 (781 to end residues) expressed in baculovirus infected Sf9 cells using poly (Glu,Tyr) 4:1 as substrate incubated for 60 mins in presence of ATP by ADP-Glo kinase assay

Experiment [2] in a line: Induction of NO release in phosphate buffer containing excess L-cysteine measured up to 14 hrs by Griess assay. In kind it is functional. Background: Nitrite, measured by Griess reagent, commonly stands in for NO production.
Experiment [3] concerns ECa-109 cell line. Description: Antiproliferative activity against human Eca-109 cells measured after 72 hrs by MTT assay. In kind it is functional, cell-based. As to conditions: ECa-109, 72 h. Background: Formazan colour is commonly taken as a measure of viable cells.
Experiment [4] has as its system MGC-803. The experiment can be described thus: cells. As to conditions: Homo sapiens, MGC-803, 72 h.
Description: Antiproliferative activity against human MGC-803 cells measured after 72 hrs by MTT assay
For experiment [5], the system named is MCF7. Description: cells. Particulars: Homo sapiens, MCF7, 72 h.
Description: Antiproliferative activity against human MCF7 cells measured after 72 hrs by MTT assay
The subject of experiment [6] is PC-3. The experiment can be described thus: Antiproliferative activity against human PC-3 cells measured after 72 hrs by MTT assay. As to conditions: PC-3, 72 h. The class given is functional, cell-based.
In experiment [7] the test system is Bel7402/5-FU. The experiment can be described thus: Antiproliferative activity against human BEL-7402/5-FU cell. The class given is functional, cell-based.
In experiment [8] the target is Lysine-specific histone demethylase 1A (Homo sapiens, UniProt O60341). The experiment can be described thus: Inhibition of LSD1 (unknown origin).

The source made the active and inactive calls. No cut-off for these calls is given here.

As usually defined, the IC50 is the concentration that inhibits the measured activity by half. A lower IC50 goes with higher potency. `N#Cc1ccccc1Nc1nc(Nc2ccc(NC(=O)CN3CCOCC3)cc2)ncc1Cl` returned an IC50 in experiment [1] of 20.7 nM.
For `N#Cc1c(Nc2ccc(Cl)cc2)nc(SCC(=O)N2CCN(CCOc3no[n+]([O-])c3S(=O)(=O)c3ccccc3)CC2)nc1-c1ccccc1`, in experiment [2], the result was Active. In addition, the IC50 in experiment [3] was 3010 nM; in experiment [4], 2050 nM; in experiment [5], 3040 nM; in experiment [6], 2080 nM.
Regarding `O=C1C(NCCOc2no[n+]([O-])c2S(=O)(=O)c2ccccc2)=CC(=O)c2ncccc21`, 420 nM corresponded to half-maximal inhibition in experiment [7] (IC50).
The compound `COc1ccc(/C=N/NC2NC(SCC(C)C)=NC(c3ccc(OC)cc3)=C2C#N)cc1` (configuration not stated) registered an IC50 in experiment [8] of 956 nM.
With `N#Cc1c(Nc2ccccc2F)nc(SCC(=O)N2CCN(CCOc3no[n+]([O-])c3S(=O)(=O)c3ccccc3)CC2)nc1-c1ccccc1`, the IC50 is 3560 nM in experiment [3], 1440 nM in experiment [4], 2280 nM in experiment [5] and 1190 nM in experiment [6].
